These results are taken from patent publication US7514452B2, “2-furancarboxylic acid hydrazides and pharmaceutical compositions containing the same” (Dainippon Pharmaceutical Co., Ltd, priority 2002, dated 2009).

Data set [1] deals with glucagon receptor (Mus musculus, UniProt Q61606). The data set can be described thus: Experiment for glucagon binding inhibition, mouse hepatic membrane (125I-glucagon). Conditions: male ddY mouse hepatic membrane, 125I-glucagon 50 pM, 25° C. for 30 minutes; read-out: Glucagon binding inhibitory activity IC50 (nM) Mouse. In a few lines:
(§1)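 Liver membranes from male SD rats or male ddY mice were incubated with 125I-glucagon and compound for 30 min at 25 °C. Bound radioactivity was collected on filters washed with pH 7.2 Tris-HCl and counted by γ counter, in duplicate. IC50 was taken from a pseudo Hill plot.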

Data set [2] deals with glucagon receptor (Rattus norvegicus, UniProt P30082). The data set is described as follows: Experiment for glucagon binding inhibition, rat hepatic membrane (125I-glucagon). The note with it: male SD rat hepatic membrane, 125I-glucagon 50 pM, 25° C. for 30 minutes; read-out: Glucagon binding inhibitory activity IC50 (nM) Rat. In outline: as §1

Each structure is given as a SMILES string.

Sequence of glucagon receptor (Rattus norvegicus, UniProt P30082) (P30082 27-485): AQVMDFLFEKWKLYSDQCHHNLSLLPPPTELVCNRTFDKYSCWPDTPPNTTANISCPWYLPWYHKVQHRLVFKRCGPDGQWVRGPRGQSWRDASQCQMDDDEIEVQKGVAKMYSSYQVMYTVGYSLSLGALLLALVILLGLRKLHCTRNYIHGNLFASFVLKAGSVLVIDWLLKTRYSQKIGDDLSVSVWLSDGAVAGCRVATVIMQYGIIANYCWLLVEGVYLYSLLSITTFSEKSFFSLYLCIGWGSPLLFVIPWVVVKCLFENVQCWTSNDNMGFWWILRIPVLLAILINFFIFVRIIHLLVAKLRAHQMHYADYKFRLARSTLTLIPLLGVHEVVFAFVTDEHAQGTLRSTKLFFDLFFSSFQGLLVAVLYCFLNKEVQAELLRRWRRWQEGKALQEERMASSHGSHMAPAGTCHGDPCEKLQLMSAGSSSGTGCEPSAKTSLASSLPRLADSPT
Sequence of glucagon receptor (Mus musculus, UniProt Q61606) (Q61606 27-485): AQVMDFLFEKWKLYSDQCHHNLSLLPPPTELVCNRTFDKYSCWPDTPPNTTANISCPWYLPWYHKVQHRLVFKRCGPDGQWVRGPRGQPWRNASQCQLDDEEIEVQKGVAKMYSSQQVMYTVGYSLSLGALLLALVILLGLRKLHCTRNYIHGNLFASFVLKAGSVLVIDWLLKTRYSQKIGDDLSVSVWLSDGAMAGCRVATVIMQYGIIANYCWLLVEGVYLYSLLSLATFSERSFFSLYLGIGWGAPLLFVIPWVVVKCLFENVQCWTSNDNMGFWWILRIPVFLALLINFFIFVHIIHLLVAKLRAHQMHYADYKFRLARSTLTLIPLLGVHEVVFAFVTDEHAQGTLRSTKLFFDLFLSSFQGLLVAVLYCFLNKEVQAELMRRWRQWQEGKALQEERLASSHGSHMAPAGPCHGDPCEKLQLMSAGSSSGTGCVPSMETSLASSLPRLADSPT

As for `CC(C)c1cccc(-c2ccoc2C(=O)NNC(=O)c2ccc(O)c([N+](=O)[O-])c2)c1` [Example 152, 3-(3-Isopropylphenyl)-2-furancarboxylic acid 2-(4-hydroxy-3-nitrobenzoyl)hydrazide], the melting point (as a rule, the temperature, or range, at which the solid turns liquid) fell in the range of 182 to 183 °C. The IC50 (as a rule, the concentration needed to halve the response being measured) in data set [1] is 250 nM. Further, the IC50 in data set [2] stood at 120 nM.

In turn, `Cc1ccc(C)c(COc2cccc(-c3ccoc3C(=O)NNC(=O)c3ccc(O)c([N+](=O)[O-])c3)c2)c1` [Example 127, 3-[3-(2,5-Dimethylbenzyloxy)phenyl]-2-furancarboxylic acid 2-(4-hydroxy-3-nitrobenzoyl)hydrazide] showed a melting point of 131 to 132 °C. Further, the IC50 in data set [1] was 7.8 nM. The 50% inhibitory concentration (IC50) in data set [2] worked out at 8.6 nM.

In the case of `O=C(NNC(=O)c1occc1-c1cccc(OCCc2ccccc2)c1)c1ccc(O)c([N+](=O)[O-])c1` [Example 209, 3-(3-phenethyloxyphenyl)-2-furancarboxylic acid 2-(4-hydroxy-3-nitrobenzoyl)hydrazide], the melting point was 90 to 94 °C. For the same molecule, in data set [1], the IC50 amounted to 35 nM. Also, the IC50 in data set [2] worked out at 20 nM.

On to `CCCCCCOc1cccc(-c2ccoc2C(=O)NNC(=O)c2ccc(O)c([N+](=O)[O-])c2)c1` [Example 184, 3-(3-Hexyloxyphenyl)-2-furancarboxylic acid 2-(4-hydroxy-3-nitrobenzoyl)hydrazide], for which the melting point lay in the range of 124 to 126 °C. The IC50 in data set [1] came out at 59 nM. Further, the concentration for half-maximal inhibition (IC50) in data set [2] worked out at 18 nM.

As for `Cc1ccc(-c2ccoc2C(=O)NNC(=O)c2ccc(O)c([N+](=O)[O-])c2)cc1C` [Example 150, 3-(3,4-Dimethylphenyl)-2-furancarboxylic acid 2-(4-hydroxy-3-nitrobenzoyl)hydrazide], the melting point lay within 127 to 129 °C. The IC50 in data set [1] turned out to be 73 nM. Also, the IC50 in data set [2] came out at 90 nM.

Consider `O=C(NNC(=O)c1occc1-c1cccc(-c2ccccc2)c1)c1ccc(O)c([N+](=O)[O-])c1` [Example 218], for which the melting point is 143 to 147 °C. Moreover, in data set [1], the IC50 amounted to 56 nM. Also, the IC50 in data set [2] was 95 nM.

Regarding `O=C(NNC(=O)c1occc1-c1ccccc1)c1ccc(O)c(C(F)(F)F)c1` [Example 193, 3-phenyl-2-furancarboxylic acid 2-(4-hydroxy-3-trifluoromethylbenzoyl)hydrazide], the melting point lay within 117 to 121 °C. The IC50 in data set [1] turned out to be 350 nM. For the same molecule, in data set [2], the IC50 came out at 330 nM.

`Cc1cccc(COc2cccc(-c3ccoc3C(=O)NNC(=O)c3ccc(O)c([N+](=O)[O-])c3)c2)c1` [Example 123, 3-[3-(3-Methylbenzyloxy)phenyl]-2-furancarboxylic acid 2-(4-hydroxy-3-nitrobenzoyl)hydrazide] showed a melting point of 144 to 145 °C. Further, in data set [1], the IC50 amounted to 65 nM. The IC50 in data set [2] amounted to 33 nM.

Take `CS(=O)(=O)c1ccc(COc2cccc(-c3ccoc3C(=O)NNC(=O)c3ccc(O)c([N+](=O)[O-])c3)c2)cc1` [Example 120, 3-[3-(4-Methylsulfonylbenzyloxy)phenyl]-2-furancarboxylic acid 2-(4-hydroxy-3-nitrobenzoyl)hydrazide]: the melting point is 114 to 117 °C. For the same molecule, in data set [1], the IC50 stood at 27 nM. Also, in data set [2], the IC50 was determined as 37 nM.

`Cc1ccc(COc2ccc(-c3ccoc3C(=O)NNC(=O)c3ccc(O)c([N+](=O)[O-])c3)cc2)cc1` [Example 211] gave a melting point of 184 to 185 °C. The IC50 in data set [1] is 25 nM. For the same molecule, in data set [2], the IC50 was found to be 8.5 nM.

Regarding `CCCCCCc1ccc(-c2ccoc2C(=O)NNC(=O)c2ccc(O)c([N+](=O)[O-])c2)cc1` [Example 158, 3-(4-Hexylphenyl)-2-furancarboxylic acid 2-(4-hydroxy-3-nitrobenzoyl)hydrazide], the melting point fell in the range of 144 to 146 °C. Further, the IC50 in data set [1] stood at 7.1 nM. Further, the half-inhibitory concentration (IC50) in data set [2] worked out at 5.9 nM.

Consider `Cc1ccc(COc2cccc(-c3ccoc3C(=O)NNC(=O)c3ccc(O)c([N+](=O)[O-])c3)c2)cc1C` [Example 129, 3-[3-(3,4-Dimethylbenzyloxy)phenyl]-2-furancarboxylic acid 2-(4-hydroxy-3-nitrobenzoyl)hydrazide], for which the melting point was in the range of 157 to 162 °C. In addition, the IC50 in data set [1] worked out at 6.1 nM. Besides, the IC50 in data set [2] was determined as 5.2 nM.

Molecule `O=C(NNC(=O)c1oc(Br)cc1-c1ccccc1)c1ccc(O)c([N+](=O)[O-])c1` [Example 222, 5-bromo-3-phenyl-2-furancarboxylic acid 2-(4-hydroxy-3-nitrobenzoyl)hydrazide] came in with a melting point of 174 to 176 °C. For the same molecule, the IC50 in data set [1] came to 42 nM. Besides, the IC50 in data set [2] turned out to be 25 nM.

`COc1ccc(COc2cccc(-c3ccoc3C(=O)NNC(=O)c3ccc(O)c([N+](=O)[O-])c3)c2)cn1` [Example 164, 3-[3-(2-Methoxy-5-pyridylmethyloxy)phenyl]-2-furancarboxylic acid 2-(4-hydroxy-3-nitrobenzoyl)hydrazide] showed a melting point of 180 to 181 °C. In addition, the IC50 in data set [1] was found to be 6.5 nM. For the same molecule, the IC50 in data set [2] worked out at 3.9 nM.
